In PubChem BioAssay (NCI):
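How tested: cells in 96-well plates exposed to compound for 48 hours at five concentrations. TGI: total growth inhibition.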

What was measured:
Assay in all cases: growth of human tumour cells (NCI), 48 h
CCRF-CEM leukemia = test system: CCRF-CEM leukemia
SK-MEL-5 melanoma = test system: SK-MEL-5 melanoma
SK-MEL-28 melanoma = test system: SK-MEL-28 melanoma
HCT-15 colon = test system: HCT-15 colon
A549 NSCLC = test system: A549 NSCLC
SNB-75 CNS = test system: SNB-75 CNS
K-562 leukemia = test system: K-562 leukemia
LOX IMVI melanoma = test system: LOX IMVI melanoma
SNB-78 CNS = test system: SNB-78 CNS
DLD-1 colon = test system: DLD-1 colon
HCC-2998 colon = test system: HCC-2998 colon
RPMI-8226 leukemia = test system: RPMI-8226 leukemia
MALME-3M melanoma = test system: MALME-3M melanoma
NCI-H226 lung = test system: NCI-H226 lung
UACC-257 melanoma = test system: UACC-257 melanoma
SK-OV-3 ovarian = test system: SK-OV-3 ovarian
SK-MEL-2 melanoma = test system: SK-MEL-2 melanoma
UACC-62 melanoma = test system: UACC-62 melanoma
NCI-H460 lung = test system: NCI-H460 lung
SNB-19 CNS = test system: SNB-19 CNS
SF-268 CNS = test system: SF-268 CNS
ACHN renal = test system: ACHN renal
NCI-H522 lung = test system: NCI-H522 lung
SF-295 CNS = test system: SF-295 CNS
DMS 273 small cell lung = test system: DMS 273 small cell lung
SF-539 CNS = test system: SF-539 CNS
HL-60(TB) leukemia = test system: HL-60(TB) leukemia
XF 498 CNS = test system: XF 498 CNS
OVCAR-8 ovarian = test system: OVCAR-8 ovarian
EKVX NSCLC = test system: EKVX NSCLC
HOP-62 NSCLC = test system: HOP-62 NSCLC
OVCAR-3 ovarian = test system: OVCAR-3 ovarian
LXFL 529 NSCLC = test system: LXFL 529 NSCLC
M19-MEL melanoma = test system: M19-MEL melanoma
HT29 colon = test system: HT29 colon
RXF 393 renal = test system: RXF 393 renal
COLO 205 colon = test system: COLO 205 colon
U251 CNS = test system: U251 CNS
SW-620 colon = test system: SW-620 colon
KM12 colon = test system: KM12 colon
MOLT-4 leukemia = test system: MOLT-4 leukemia
786-0 renal = test system: 786-0 renal
OVCAR-5 ovarian = test system: OVCAR-5 ovarian
UO-31 renal = test system: UO-31 renal
HCT-116 colon = test system: HCT-116 colon
NCI-H23 lung = test system: NCI-H23 lung
CAKI-1 renal = test system: CAKI-1 renal
A498 renal = test system: A498 renal
DMS 114 small cell lung = test system: DMS 114 small cell lung
SN12C renal = test system: SN12C renal
TK-10 renal = test system: TK-10 renal
KM20L2 colon = test system: KM20L2 colon
M14 melanoma = test system: M14 melanoma
IGROV1 ovarian = test system: IGROV1 ovarian
T-47D breast = test system: T-47D breast
PC-3 prostate = test system: PC-3 prostate
OVCAR-4 ovarian = test system: OVCAR-4 ovarian
MCF7 breast = test system: MCF7 breast
HOP-92 NSCLC = test system: HOP-92 NSCLC
MDA-N = test system: MDA-N
NCI/ADR-RES ovarian = test system: NCI/ADR-RES ovarian
MDA-MB-435 = test system: MDA-MB-435
DU-145 prostate = test system: DU-145 prostate
SR leukemia = test system: SR leukemia
BT-549 breast = test system: BT-549 breast
HS 578T breast = test system: HS 578T breast
MDA-MB-231 breast = test system: MDA-MB-231 breast

Measured: TGI

Cc1cc(N(CCC#N)CCC#N)ccc1/C=C1N=C(/C=C/c2ccccc2)OC(=O)N\1
41.3 µM: SF-295 CNS
> 100 µM: CCRF-CEM leukemia | SK-MEL-5 melanoma | SK-MEL-28 melanoma | HCT-15 colon | A549 NSCLC | SNB-75 CNS | K-562 leukemia | LOX IMVI melanoma | SNB-78 CNS | DLD-1 colon | HCC-2998 colon | RPMI-8226 leukemia | MALME-3M melanoma | NCI-H226 lung | UACC-257 melanoma | SK-OV-3 ovarian | SK-MEL-2 melanoma | UACC-62 melanoma | NCI-H460 lung | SNB-19 CNS | SF-268 CNS | ACHN renal | NCI-H522 lung | DMS 273 small cell lung | SF-539 CNS | HL-60(TB) leukemia | XF 498 CNS | OVCAR-8 ovarian | EKVX NSCLC | HOP-62 NSCLC | OVCAR-3 ovarian | LXFL 529 NSCLC | M19-MEL melanoma | HT29 colon | RXF 393 renal | COLO 205 colon | U251 CNS | SW-620 colon | KM12 colon | MOLT-4 leukemia | 786-0 renal | OVCAR-5 ovarian | UO-31 renal | HCT-116 colon | NCI-H23 lung | CAKI-1 renal | A498 renal | DMS 114 small cell lung | SN12C renal | TK-10 renal | KM20L2 colon | M14 melanoma | IGROV1 ovarian

CC(O)C1CC1(CO)CNc1cc(Cl)nc(N)n1 (stereo not given)
> 100 µM: CCRF-CEM leukemia | SK-MEL-5 melanoma | SK-MEL-28 melanoma | T-47D breast | PC-3 prostate | HCT-15 colon | A549 NSCLC | SNB-75 CNS | K-562 leukemia | LOX IMVI melanoma | HCC-2998 colon | RPMI-8226 leukemia | OVCAR-4 ovarian | MCF7 breast | MALME-3M melanoma | NCI-H226 lung | UACC-257 melanoma | SK-OV-3 ovarian | SK-MEL-2 melanoma | NCI-H460 lung | SNB-19 CNS | SF-268 CNS | HOP-92 NSCLC | ACHN renal | NCI-H522 lung | SF-295 CNS | SF-539 CNS | MDA-N | HL-60(TB) leukemia | NCI/ADR-RES ovarian | MDA-MB-435 | DU-145 prostate | SR leukemia | OVCAR-8 ovarian | EKVX NSCLC | HOP-62 NSCLC | OVCAR-3 ovarian | HT29 colon | RXF 393 renal | COLO 205 colon | BT-549 breast | U251 CNS | SW-620 colon | KM12 colon | MOLT-4 leukemia | 786-0 renal | OVCAR-5 ovarian | UO-31 renal | HCT-116 colon | NCI-H23 lung | HS 578T breast | CAKI-1 renal | MDA-MB-231 breast | SN12C renal | TK-10 renal | IGROV1 ovarian
